Source: the supplement of paper PMC10883282
± gives the standard deviation of the averaged measurements.

Columns and labels:
Assay in all cases: relative viability vs DMSO control (72 h) (fraction); higher = more viable cells
[1] = system: A204
Summary of the method: (§1)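 Serially diluted compound, 2.5 µl from source plates spanning 10 mM to 0.0002 mM, was added 24 h after sarcoma cell lines were seeded in 384-well plates at densities targeting 80–90% confluence. Plates then sat 72 h at 37 °C, 5% CO2, with 0.1% DMSO vehicle and a 5 µM positive control. Relative viability came from ATPLite as percent growth, averaged over up to triplicate wells, and was rescaled with 1 as full and 0 as none.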

[2] = system: HS729
Summary of the method: as §1

[3] = system: KHOS-NP
Summary of the method: as §1

[4] = system: SW684
Summary of the method: as §1

[5] = system: SW872
Summary of the method: as §1

COc1cc2ncnc(Nc3ccc(F)c(Cl)c3)c2cc1NC(=O)/C=C/CN1CCCCC1 [Dacomitinib]
relative viability
Conditions | [1] | [2] | [3] | [4] | [5]
0.00017 µM | 1.1 ± 0.037 | 1.08 ± 0.029 | 1.09 ± 0.029 | 1.22 ± 0.061 | 1.1 ± 0.07
0.00051 µM | 1.09 ± 0.05 | 1.04 ± 0.04 | 1.09 ± 0.025 | 1.23 ± 0.039 | 1.12 ± 0.072
0.00152 µM | 1.09 ± 0.031 | 1.03 ± 0.025 | 1.1 ± 0.019 | 1.208 ± 0.012 | 1.1 ± 0.035
0.00457 µM | 1.08 ± 0.029 | 1.04 ± 0.046 | 1.09 ± 0.022 | 1.18 ± 0.017 | 1.11 ± 0.071
0.01372 µM | 1.04 ± 0.017 | 1.01 ± 0.039 | 1.08 ± 0.024 | 1.18 ± 0.071 | 1.11 ± 0.074
0.04115 µM | 1.07 ± 0.064 | 0.975 ± 0.05 | 1.086 ± 0.0098 | 1.15 ± 0.036 | 1.08 ± 0.096
0.1235 µM | 1.06 ± 0.025 | 1 ± 0.031 | 1.08 ± 0.032 | 1.22 ± 0.072 | 1.05 ± 0.093
0.3704 µM | 0.978 ± 0.043 | 0.894 ± 0.025 | 1.08 ± 0.03 | 1.08 ± 0.077 | 1.03 ± 0.045
1.111 µM | 0.751 ± 0.014 | 0.844 ± 0.018 | 1.08 ± 0.015 | 1.01 ± 0.049 | 0.87 ± 0.09
3.333 µM | 0.327 ± 0.06 | 0.737 ± 0.026 | 0.985 ± 0.044 | 0.599 ± 0.03 | 0.508 ± 0.096
10 µM | 0.0139 ± 0.0023 | 0.318 ± 0.085 | 0.0233 ± 0.0027 | -0.00213 ± 0.0063 | 0.043 ± 0.018

Cc1nc(Nc2ncc(C(=O)Nc3c(C)cccc3Cl)s2)cc(N2CCN(CCO)CC2)n1 [Dasatinib]
relative viability
Conditions | [1] | [2] | [3] | [4] | [5]
0.00017 µM | 1.08 ± 0.066 | 0.947 ± 0.023 | 1.023 ± 0.0082 | 1.166 ± 0.01 | 1.03 ± 0.017
0.00051 µM | 1.04 ± 0.063 | 0.959 ± 0.03 | 1.03 ± 0.015 | 1.15 ± 0.018 | 1.02 ± 0.033
0.00152 µM | 1.06 ± 0.071 | 0.95 ± 0.053 | 1 ± 0.024 | 1.18 ± 0.037 | 1.01 ± 0.048
0.00457 µM | 1.02 ± 0.091 | 0.869 ± 0.022 | 0.993 ± 0.04 | 1.18 ± 0.016 | 0.957 ± 0.056
0.01372 µM | 0.83 ± 0.05 | 0.796 ± 0.026 | 0.923 ± 0.034 | 1.15 ± 0.02 | 0.86 ± 0.046
0.04115 µM | 0.501 ± 0.042 | 0.696 ± 0.014 | 0.872 ± 0.022 | 1 ± 0.013 | 0.779 ± 0.023
0.1235 µM | 0.376 ± 0.017 | 0.633 ± 0.012 | 0.721 ± 0.044 | 0.739 ± 0.021 | 0.639 ± 0.035
0.3704 µM | 0.356 ± 0.023 | 0.618 ± 0.0067 | 0.525 ± 0.028 | 0.625 ± 0.024 | 0.551 ± 0.034
1.111 µM | 0.356 ± 0.04 | 0.609 ± 0.035 | 0.436 ± 0.015 | 0.6057 ± 0.004 | 0.521 ± 0.029
3.333 µM | 0.314 ± 0.021 | 0.585 ± 0.033 | 0.327 ± 0.014 | 0.619 ± 0.0096 | 0.481 ± 0.048
10 µM | 0.281 ± 0.014 | 0.581 ± 0.043 | 0.237 ± 0.013 | 0.457 ± 0.0087 | 0.359 ± 0.012

COc1cc(OC)cc(N(CCNC(C)C)c2ccc3ncc(-c4cnn(C)c4)nc3c2)c1 [Erdafitinib]
relative viability
Conditions | [1] | [2] | [3] | [4] | [5]
0.00017 µM | 1.04 ± 0.034 | 1 ± 0.06 | 1.07 ± 0.015 | 1.1 ± 0.073 | 1.03 ± 0.05
0.00051 µM | 1.03 ± 0.011 | 0.868 ± 0.015 | 1.06 ± 0.023 | 1.17 ± 0.069 | 1.05 ± 0.075
0.00152 µM | 0.971 ± 0.035 | 0.844 ± 0.046 | 1.05 ± 0.021 | 1.13 ± 0.05 | 1.07 ± 0.062
0.00457 µM | 0.934 ± 0.057 | 0.813 ± 0.081 | 1.06 ± 0.016 | 1.1 ± 0.087 | 1.01 ± 0.083
0.01372 µM | 0.746 ± 0.054 | 0.74 ± 0.06 | 1.04 ± 0.035 | 1.08 ± 0.016 | 0.989 ± 0.081
0.04115 µM | 0.595 ± 0.045 | 0.613 ± 0.036 | 1.04 ± 0.025 | 1.04 ± 0.023 | 0.985 ± 0.073
0.1235 µM | 0.422 ± 0.07 | 0.604 ± 0.0076 | 1.02 ± 0.054 | 1.06 ± 0.031 | 0.949 ± 0.091
0.3704 µM | 0.322 ± 0.085 | 0.549 ± 0.023 | 1.01 ± 0.046 | 1.09 ± 0.045 | 0.912 ± 0.067
1.111 µM | 0.194 ± 0.0018 | 0.487 ± 0.012 | 0.999 ± 0.038 | 0.998 ± 0.038 | 0.717 ± 0.045
3.333 µM | 0.127 ± 0.013 | 0.423 ± 0.015 | 0.943 ± 0.061 | 0.739 ± 0.014 | 0.5 ± 0.05
10 µM | 0.0417 ± 0.0062 | 0.37 ± 0.011 | 0.638 ± 0.049 | 0.39 ± 0.013 | 0.274 ± 0.063
